Activity calls are given as the source filed them.
What was measured:
[1] = target: V-type proton ATPase subunit C (Manduca sexta) (UniProt Q9U5N1); test: Inhibition of tobacco hornworm V-ATPase c subunit
[2] = target: V-type proton ATPase subunit C (Manduca sexta) (UniProt Q9U5N1); test: Binding affinity to tobacco hornworm V-ATPase c subunit in 4:4:1 CDCl3:MeOH-d4:D2O by NMR analysis
[3] = Solubility of the compound in 50:50 DMSO-d6:D2O solution at 1 mM by NMR analysis; type: physicochemical; settings: 1000 µM
[4] = Solubility in 4 mM LDAO at 1 mM by NMR analysis; type: physicochemical; settings: 1000 µM
[5] = Solubility of the compound in 42:9:49 EtOH-d6:CNCD3:D2O solution at <0.5 mM by NMR analysis; type: physicochemical
[6] = Solubility of the compound in 40:40:1 CDCl3:MeOH-d4:D2O at 1 mM by NMR analysis; type: physicochemical; settings: 1000 µM
[7] = Solubility in 17 mM DHPC at 1 mM by NMR analysis; type: physicochemical; settings: 1000 µM
[8] = Solubility in 3 mM DPC at 0.5 mM by NMR analysis; type: physicochemical; settings: 500 µM
[9] = Solubility of the compound in 10:90 MeOH-d4:D2O solution at 0.5 mM by NMR analysis; type: physicochemical; settings: 500 µM
[10] = Solubility in 0.4 mM OG at 0.5 mM by NMR analysis; type: physicochemical; settings: 500 µM
[11] = Solubility of the compound in 5:95 CNCD3-d6:D2O solution at 1 mM by NMR analysis; type: physicochemical; settings: 1000 µM
[12] = Solubility of the compound in 10:90 DMSO-d6:D2O solution at 0.5 mM by NMR analysis; type: physicochemical; settings: 500 µM
[13] = Solubility of the compound in 5:95 EtOH-d6:D2O solution at 1 mM by NMR analysis; type: physicochemical; settings: 1000 µM
[14] = Solubility of the compound in 5:95 EtOH-d6:D2O solution at 0.5 mM by NMR analysis; type: physicochemical; settings: 500 µM
[15] = Solubility in 2 mM LMPC at 0.5 mM by NMR analysis; type: physicochemical; settings: 500 µM
[16] = Solubility in 50 mM OG at 0.5 mM by NMR analysis; type: physicochemical; settings: 500 µM
[17] = Solubility of the compound in 5:95 MeOH-d4:D2O solution at 0.5 mM by NMR analysis; type: physicochemical; settings: 500 µM

V-type proton ATPase subunit C (Manduca sexta), sequence (Q9U5N1 whole entry): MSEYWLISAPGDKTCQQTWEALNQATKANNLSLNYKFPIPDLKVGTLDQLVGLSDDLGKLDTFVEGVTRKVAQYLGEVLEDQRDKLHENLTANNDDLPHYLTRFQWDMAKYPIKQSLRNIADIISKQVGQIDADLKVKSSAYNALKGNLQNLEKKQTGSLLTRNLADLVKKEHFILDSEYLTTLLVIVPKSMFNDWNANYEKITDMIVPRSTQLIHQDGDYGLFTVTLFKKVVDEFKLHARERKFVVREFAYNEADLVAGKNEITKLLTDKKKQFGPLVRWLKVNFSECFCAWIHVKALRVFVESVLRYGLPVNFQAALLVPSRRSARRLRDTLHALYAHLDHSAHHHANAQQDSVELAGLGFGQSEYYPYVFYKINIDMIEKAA

C=CCOP(=O)(O)CC(=O)O[C@@H]1/C=C/C(C)=C\C(C)=C/[C@H](C)[C@H](OC(=O)CP(=O)(O)OCC=C)/C=C(\C)C/C=C/C(=O)O[C@H](c2csc([C@H](CC(C)C)OC(=O)NC)n2)[C@@H](C)/C=C/C=C(\C)[C@@H](OC)[C@H]1C
inactive: inhibition [1]

CNC(=O)O[C@@H](CC(C)C)c1nc([C@H]2OC(=O)/C(C)=C/C/C(C)=C/[C@@H](O[C@@H]3O[C@H](CO)[C@@H](O)[C@H](O)[C@H]3O)[C@@H](C)\C=C(C)/C=C(C)\C=C\[C@@H](O)[C@H](C)[C@H](OC)/C(C)=C/C=C/[C@@H]2C)cs1
inactive: Activity [2]

CNC(=O)O[C@@H](CC(C)C)c1nc([C@H]2OC(=O)/C(C)=C/C/C(C)=C/[C@@H](O)[C@@H](C)\C=C(C)/C=C(C)\C=C\[C@@H](O)[C@H](C)[C@H](OC)/C(C)=C/C=C/[C@@H]2C)cs1 [ARCHAZOLID A]
soluble: solubility [6]
inactive: Activity [2]
Insoluble: solubility [3] | solubility [4] | solubility [5] | solubility [7] | solubility [8] | solubility [9] | solubility [10] | solubility [11] | solubility [12] | solubility [13] | solubility [14] | solubility [15] | solubility [16] | solubility [17]

From ChEMBL document CHEMBL2203048, “Synthesis and biological evaluation of a water-soluble derivative of the potent V-ATPase inhibitor archazolid” (Bioorg Med Chem Lett, 2012)
